Data: US6528675B1, “Cyanohydrin ethers and esters as high-sensitivity enzyme substrates” (The Regents of the University of California, priority 2001, dated 2003)
Each block holds one compound with its values, some of them ahead of it.

Assays:
[1] = Substrate stability in buffer, fluorescence detection; assay type: physicochemical; conditions: 10 μM substrate, no enzyme, 5-minute reading
Procedure: (§1) The same two invention substrates and two prior art substrates were tested for stability by both UV detection and fluorescence detection under typical assay conditions.
(§2) Tris maleate buffers (0.1 M) at pH ranging from 6.0 to 9.0 in intervals of 1.0 were used, and substrate was added to 10 μM final concentration. […] The fluorescence samples were read with excitation at 360 nm and emission at 460 nm (for pH 6.0), 465 nm (for pH 7.0), 485 nm (pH 8.0), and 510 nm (pH 9.0) for the methylumbelyl acetate, and with excitation at 330 nm and emission at 460 nm for the two test compounds, in all cases, the readings over 5-minute periods.

cytochrome P450 = experiment: Substrate response to P450 enzyme activity, rat microsomal enzyme preparation; assay type: biochemical, rats; conditions: pH 7.6, 37° C., substrate 10 mM final concentration, average of three tests
Source text: This example compares four cytochrome P450 substrates within the scope of this invention with two cytochrome P450 substrates that are outside the scope of this invention. The four invention substrates were methoxynaphthalen-2-yl acetonitrile (whose synthesis is shown in Example 8 above and which is designated below as Compound III), ethoxynaphthalen-2-yl acetonitrile (synthesis shown in Example 9, Compound IV), benzoxynaphthalen-2-yl acetonitrile (synthesis shown in Example 10, Compound V), and pentoxynaphthalen-2-yl acetonitrile (synthesis shown in Example 11, Compound VI). The substrates outside the scope of the invention were ethoxyresorufin (designated below as Compound A) and pentoxyresorufin (designated below as Compound B). The structures of these last two substrates are as follows: [drawing 56]
All substrates were tested against a microsomal enzyme preparation from 8-week-old Fisher […] rats, by first combining 890 mL of the preparation with 2 mL of phosphate buffer (pH 7.6, 0.2 M) and incubating the mixture at 37° C. for 5 minutes. The substrate (10 mL) was then added (10 mM final concentration), followed by an appropriate signal generating system (100 mL). The samples were immediately read by fluorometer at 460 nm for 1 minute with excitation at 330 nm. The results in terms of specific activity, both with and without the enzyme system, are shown in Table VII, in which each entry represents an average of three tests.

[2] = test system: homogenate of Heliothis virescens, pyrethroid-susceptible strain; experiment: Specific activity of esterase against substrates; assay type: biochemical; conditions: H. virescens (susceptible), pH 8.0, 10 μM substrate, fluorescence 330/460 nm
Procedure: (§3) The esterases were porcine esterase purchased from Sigma Chemical Company, St. Louis, Mo., USA, esterase from a rat liver microsomal preparation from 8-week-old Fisher 344 rats, and homogenates of Heliothis virescens from both pyrethroid-susceptible and -resistant strains of tobacco budworm. The substrate in each case was added to a tris-maleate buffer (pH 8.0, 0.1 m) to a final substrate concentration of 10 μM, followed by the addition of the enzyme preparation. The samples were then immediately read by fluorometer at 460 nm for one minute (excitation at 330 nm). The results are listed in Table VI, where “Compound I” denotes the Example 1 substrate, and “Compound II” denotes the Example 4 substrate.

[3] = test system: homogenate of Heliothis virescens, pyrethroid-resistant strain; experiment: Specific activity of esterase against substrates; assay type: biochemical; conditions: H. virescens (resistant), pH 8.0, 10 μM substrate, fluorescence 330/460 nm
Procedure: as §3

porcine esterase [4] = experiment: Specific activity of esterase against substrates; assay type: biochemical; conditions: pH 8.0, 10 μM substrate, fluorescence 330/460 nm
Procedure: as §3

[5] = test system: esterase from a rat liver microsomal preparation; experiment: Specific activity of esterase against substrates; assay type: biochemical, Fisher 344 rats; conditions: Rat liver microsome, pH 8.0, 10 μM substrate, fluorescence 330/460 nm
Procedure: as §3

[6] = Substrate stability in buffer, UV detection; assay type: physicochemical; conditions: 10 μM substrate, no enzyme, 5-minute reading
Procedure: as §1, §2

porcine esterase [7] = experiment: Sensitivity of substrate to enzyme strength; assay type: biochemical; conditions: pH 8.0, 10 μM substrate, 1 unit=1 μmol/min/mL
Procedure: This example illustrates the sensitivity of the substrate to the enzyme, and compares a substrate in accordance with the present invention to two prior art substrates. […] The enzyme was porcine esterase.
A tris-maleate buffer at pH 8.0 (0.1 M) was used. The procedure consisted of adding substrate to a test tube containing 3 mL of buffer to a final substrate concentration of 10 μM, then adding porcine esterase at strengths of 0.06, 0.09. 0.12, 0.18, 0.30, 0.60, 0.9 and 1.2 unit, in which 1 unit=1 μmol/min/mL. […] The enzyme sensitivities for each substrate and detection method were defined as the minimal amount of enzyme per mL required to produce a signal from the substrate that was at least three times greater than the background noise.

[8] = Change in optical properties, UV absorption of esters and hydrolysis products; assay type: physicochemical; conditions: for ε (molar absorptivity): in M-1 cm-1 (unit assumed)
Source text: The substrates representing the invention were (R/S)-acetic acid cyano-(6-methoxynaphthalen-2-yl)-methyl ester (the title compound of Synthesis Example 1 above) and (trans/cis)-3-(2,2-dichlorovinyl)-2,2-dimethylcyclopropanecarboxylic acid cyano-(6-methoxynaphthalen-2-yl)-methyl ester (the title compound of Synthesis Example 2 above).

[9] = Change in optical properties, fluorescence of esters and hydrolysis products; assay type: physicochemical
Source text: The substrates representing the invention were (R/S)-acetic acid cyano-(6-methoxynaphthalen-2-yl)-methyl ester (the title compound of Synthesis Example 1 above) and (trans/cis)-3-(2,2-dichlorovinyl)-2,2-dimethylcyclopropanecarboxylic acid cyano-(6-methoxynaphthalen-2-yl)-methyl ester (the title compound of Synthesis Example 2 above). The substrates of the prior art were methylumbelyl acetate (for detection by fluorescence emission) and 2-naphthacetate (for detection by UV absorption) in assay solutions with different pH values. These prior art substrates were selected because both are widely used and both have aromatic systems similar to the two test compounds.
Again using tris-maleate at pH levels of 6.5, 7.5, and 8.5, fluorescence studies were performed at concentrations of 10 μM, and fluorescence of the starting esters and the hydrolysis products (hydroxycoumarin in the case of methylumbelyl acetate and 6-methoxy-naphthaldehyde in the case of the Example 1 substrate) were determined by conventional instrumentation. The results are listed in Table III in which “MUA” denotes methylumbelyl acetate, “Compound I” denotes the Example 1 substrate, “Ex” denotes the optimal excitation wavelength in nm, “Emmax” denotes the maximal emission wavelength in nm, and “RFU” denotes the relative fluorescence units multiplied by 1,000.

Compound: N#CC(OCc1ccccc1)c1ccc2ccccc2c1 (centres unmarked)
- melting point: 36 to 37 °C

Compound: CCC1OC1CC(=O)OC(C#N)c1ccc2ccccc2c1 (centres unmarked)
- melting point: 60 to 61 °C

Compound: N#CC(OC(=O)C/C=C/c1ccccc1)c1ccc2ccccc2c1 (centres unmarked)
- melting point: 74 to 75 °C

Compound: COc1ccc2cc(C(C#N)OC(=O)C3C(C=C(Cl)Cl)C3(C)C)ccc2c1 (mixture of isomers) [Compound II, (trans/cis)-3-(2,2-Dichlorovinyl)-2,2-dimethylcyclopropanecarboxylic Acid Cyano-(6-methoxynaphthalen-2-yl) Methyl Ester]
- Substrate stability, Fluorescence ([1]; pH 6, tris maleate 0.1 M): <1 pmol/min
- Substrate stability, Fluorescence ([1]; pH 7, tris maleate 0.1 M): <1 pmol/min
- Substrate stability, Fluorescence ([1]; pH 8, tris maleate 0.1 M): <1 pmol/min
- Substrate stability, Fluorescence ([1]; pH 9, tris maleate 0.1 M): 10 pmol/min
- Specific Activity, With Enzyme System (cytochrome P450): 102.4 ± 7.5 pmol/min/mg protein
- Specific Activity, Without Enzyme System (cytochrome P450): 33.4 ± 2.0 pmol/min/mg protein
- Specific Activity [2]: 150 ± 9 pmol/min/mg protein
- Specific Activity [3]: 840 ± 22 pmol/min/mg protein
- Specific Activity (porcine esterase [4]): 142,000 ± 520 pmol/min/mg protein
- Specific Activity [5]: 270 ± 18 pmol/min/mg protein
- Substrate stability, UV Absorption ([6]; pH 6, tris maleate 0.1 M): <0.01 mAbs/min
- Substrate stability, UV Absorption ([6]; pH 7, tris maleate 0.1 M): <0.01 mAbs/min
- Substrate stability, UV Absorption ([6]; pH 8, tris maleate 0.1 M): <0.01 mAbs/min
- Substrate stability, UV Absorption ([6]; pH 9, tris maleate 0.1 M): 0.05 mAbs/min

Compound: CC(=O)OC(C#N)c1ccc2ccccc2c1 (racemic)
- melting point: 37 to 38 °C

Compound: CC(=O)Oc1ccc2ccccc2c1 [Compound 2-NA, 2-naphthacetate, reference compound]
- Sensitivity (minimal amount of enzyme per mL giving a signal at least three times background noise) (porcine esterase [7]; UV detection): 0.002
- OD (optical density) ([8]; tris-maleate pH 6.5, 10 μM): 0.14
- ε (molar absorptivity) ([8]; tris-maleate pH 6.5, 10 μM): 3,500
- OD (optical density) ([8]; tris-maleate pH 7.5, 10 μM): 0.141
- ε (molar absorptivity) ([8]; tris-maleate pH 7.5, 10 μM): 3,500
- OD (optical density) ([8]; tris-maleate pH 8.5, 10 μM): 0.133
- ε (molar absorptivity) ([8]; tris-maleate pH 8.5, 10 μM): 3,300
- Substrate stability, UV Absorption ([6]; pH 6, tris maleate 0.1 M): <0.01 mAbs/min
- Substrate stability, UV Absorption ([6]; pH 7, tris maleate 0.1 M): 0.05 mAbs/min
- Substrate stability, UV Absorption ([6]; pH 8, tris maleate 0.1 M): 0.44 mAbs/min
- Substrate stability, UV Absorption ([6]; pH 9, tris maleate 0.1 M): 0.555 mAbs/min

Compound: CCOc1ccc2nc3ccc(=O)cc-3oc2c1 [Compound A, ethoxyresorufin, reference compound]
- Specific Activity, With Enzyme System (cytochrome P450): 89.0 ± 4.6 pmol/min/mg protein
- Specific Activity, Without Enzyme System (cytochrome P450): 52.2 ± 1.9 pmol/min/mg protein

Compound: CCCCCOc1ccc2nc3ccc(=O)cc-3oc2c1 [Compound B, pentoxyresorufin, reference compound]
- Specific Activity, With Enzyme System (cytochrome P450): 62.5 ± 5.2 pmol/min/mg protein
- Specific Activity, Without Enzyme System (cytochrome P450): 41.8 ± 2.2 pmol/min/mg protein

Now from value to compound:

- Specific Activity, With Enzyme System (cytochrome P450): 275.8 ± 20.5 pmol/min/mg protein
- Specific Activity, Without Enzyme System (cytochrome P450): 45.9 ± 3.0 pmol/min/mg protein
- melting point: 47 to 48 °C
Compound: COC(C#N)c1ccc2ccccc2c1 (centres unmarked) [Compound III, Methoxynaphthalene-2-yl Acetonitrile]

- Specific Activity, With Enzyme System (cytochrome P450): 292.6 ± 16.2 pmol/min/mg protein
- Specific Activity, Without Enzyme System (cytochrome P450): 40.0 ± 1.2 pmol/min/mg protein
- melting point: 53 to 54 °C
Compound: CCOC(C#N)c1ccc2ccccc2c1 (centres unmarked) [Compound IV, Ethoxynaphthalene-2-yl Acetonitrile]

- Emmax (maximal emission wavelength) ([9]; tris-maleate pH 6.5, 10 μM): 366 nm
- Ex (optimal excitation wavelength) ([9]; tris-maleate pH 6.5, 10 μM): 330 nm
- RFU (relative fluorescence units multiplied by 1,000) ([9]; tris-maleate pH 6.5, 10 μM): 2,672 RFU
- Emmax (maximal emission wavelength) ([9]; tris-maleate pH 7.5, 10 μM): 366 nm
- Ex (optimal excitation wavelength) ([9]; tris-maleate pH 7.5, 10 μM): 330 nm
- RFU (relative fluorescence units multiplied by 1,000) ([9]; tris-maleate pH 7.5, 10 μM): 1,350 RFU
- Emmax (maximal emission wavelength) ([9]; tris-maleate pH 8.5, 10 μM): 366 nm
- Ex (optimal excitation wavelength) ([9]; tris-maleate pH 8.5, 10 μM): 330 nm
- RFU (relative fluorescence units multiplied by 1,000) ([9]; tris-maleate pH 8.5, 10 μM): 1,600 RFU
- Sensitivity (minimal amount of enzyme per mL giving a signal at least three times background noise) (porcine esterase [7]; Fluorescence detection): 0.0005
Compound: CC(=O)Oc1ccc2c(C)cc(=O)oc2c1 [MUA, methylumbelyl acetate, reference compound]

- emission peak ([9]; over the three pH levels tested (6.5, 7.5, 8.5)): 460 nm
- Emmax (maximal emission wavelength) ([9]; tris-maleate pH 6.5, 10 μM): 450 nm
- Ex (optimal excitation wavelength) ([9]; tris-maleate pH 6.5, 10 μM): 360 nm
- RFU (relative fluorescence units multiplied by 1,000) ([9]; tris-maleate pH 6.5, 10 μM): 17,783 RFU
- Emmax (maximal emission wavelength) ([9]; tris-maleate pH 7.5, 10 μM): 485 nm
- Ex (optimal excitation wavelength) ([9]; tris-maleate pH 7.5, 10 μM): 360 nm
- RFU (relative fluorescence units multiplied by 1,000) ([9]; tris-maleate pH 7.5, 10 μM): 19,250 RFU
- Emmax (maximal emission wavelength) ([9]; tris-maleate pH 8.5, 10 μM): 510 nm
- Ex (optimal excitation wavelength) ([9]; tris-maleate pH 8.5, 10 μM): 360 nm
- RFU (relative fluorescence units multiplied by 1,000) ([9]; tris-maleate pH 8.5, 10 μM): 19,256 RFU
- OD (optical density) ([8]; tris-maleate pH 6.5, 10 μM): 0.473
- λmax ([8]; tris-maleate pH 6.5, 10 μM): 314 nm
- ε (molar absorptivity) ([8]; tris-maleate pH 6.5, 10 μM): 11,870
- OD (optical density) ([8]; tris-maleate pH 7.5, 10 μM): 0.468
- λmax ([8]; tris-maleate pH 7.5, 10 μM): 313 nm
- ε (molar absorptivity) ([8]; tris-maleate pH 7.5, 10 μM): 11,700
- OD (optical density) ([8]; tris-maleate pH 8.5, 10 μM): 0.465
- λmax ([8]; tris-maleate pH 8.5, 10 μM): 314 nm
- ε (molar absorptivity) ([8]; tris-maleate pH 8.5, 10 μM): 11,630
Compound: COc1ccc2cc(C=O)ccc2c1 [aldehyde, 6-methoxy-2-naphthaldehyde]

- Emmax (maximal emission wavelength) ([9]; tris-maleate pH 6.5, 10 μM): 460 nm
- Ex (optimal excitation wavelength) ([9]; tris-maleate pH 6.5, 10 μM): 330 nm
- RFU (relative fluorescence units multiplied by 1,000) ([9]; tris-maleate pH 6.5, 10 μM): 18,830 RFU
- Emmax (maximal emission wavelength) ([9]; tris-maleate pH 7.5, 10 μM): 460 nm
- Ex (optimal excitation wavelength) ([9]; tris-maleate pH 7.5, 10 μM): 330 nm
- RFU (relative fluorescence units multiplied by 1,000) ([9]; tris-maleate pH 7.5, 10 μM): 19,025 RFU
- Emmax (maximal emission wavelength) ([9]; tris-maleate pH 8.5, 10 μM): 460 nm
- Ex (optimal excitation wavelength) ([9]; tris-maleate pH 8.5, 10 μM): 330 nm
- RFU (relative fluorescence units multiplied by 1,000) ([9]; tris-maleate pH 8.5, 10 μM): 19,195 RFU
Compound: hydroxycoumarin [HO-coumarin]
